Consider six compounds from patent US20090215774A1, “USES OF INDANE COMPOUNDS” (H. LUNDBECK A/S, priority 2008, published 2009).

Where two headings read alike, the source gives them in different places.

One assay concerns the target T1, DAT Dopamine Transporter (Rattus norvegicus, UniProt P23977).
T1 construct: male wistar rats (125-250 g) are sacrificed by decapitation and striatum quickly dissected out; from tissue; host or cells: rat striatum, P2 fraction
Kind of assay: Measurements of [3H]dopamine uptake into rat cortical synaptosomes. Format: biochemical. Here is the method: Measurements of [^3H]Dopamine Uptake Into Rat Cortical Synaptosomes
The tissue is gently homogenised (glass teflon homogeniser) and the P2 fraction is obtained by centrifugation (1000 g, 10 minutes and 40000 g, 20 minutes, 4° C.) and suspended in 560 volumes of a modified Krebs-Ringer-phosphate buffer, pH 7.4.
Tissue 0.25 mg/well (140 μl) (original tissue) is mixed with test suspension. […] Final volume is 0.2 mL. The incubation is terminated by filtering the samples under vacuum through Whatman GF/C filters with a wash of 1×0.2 ml buffer. The filters are dried and appropriate scintillation fluid (Optiphase Supermix) is added. After storage for 2 hours in the dark the content of radioactivity is determined by liquid scintillation counting. Uptake is obtained by subtracting the non-specific binding and passive transport measured in the presence of 100 μM of benztropin. For determination of the inhibition of uptake ten concentrations of drugs covering 6 decades are used.
^3H-DA=3,4-(ring-2,5,6-^3H)dopamine hydrochloride from New England Nuclear, specific activity 30-50 Ci/mmol.

The target in assay [1] is T2, 5-HTT Serotonin Transporter (Rattus norvegicus, UniProt P31652).
T2 construct: Whole brains from male Wistar rats (125-225 g), excluding cerebellum, are homogenized; from tissue; host or cells: rat whole brain excluding cerebellum, synaptosomal (P2) pellet
Kind of assay: Measurements of [3H]-5-HT uptake into rat cortical synaptosomes. Format: biochemical. Here is the method: Measurements of [^3H]-5-HT Uptake Into Rat Cortical Synaptosomes
The homogenate is centrifuged at 1000×g for 10 rain at 4° C. The pellet is discarded and the supernatant is centrifuged at 40.000×g for 20 min. The final pellet is homogenized in assay buffer (0.5 mg original tissue/well). Test compounds (or buffer) and 10 nM [^3H]-5-HT are added to 96 well plates. […] The incubation is started by adding tissue to a final assay volume of 0.2 mL. After 15 min incubation with radioligand at 37° C., samples are filtered directly on Unifilter GF/C glass fiber filters (soaked for 30 min in 0.1% polyethylenimine) under vacuum and immediately washed with 1×0.2 ml assay buffer. Non-specific uptake is determined using citalopram (10 μM final concentration). Citalopram is included as reference in all experiments as dose-response curve.

Assay [2] deals with NAT Noradrenergic Transporter (Rattus norvegicus, UniProt Q9WTR4). Kind of assay: Measurements of [3H]noradrenaline uptake into rat cortical synaptosomes. Format: biochemical. Here is the method:
Measurements of [^3H]Noradrenaline Uptake Into Rat Cortical Synaptosomes
The homogenate is centrifuged at 1000×g for 10 min at 4° C. The pellet is discarded and the supernatant is centrifuged at 40.000×g for 20 min. […] Pellet is suspended in 140 volumes of assaybuffer. Tissue is mixed with test compounds and after 10 min pre-incubation, 10 nM [^3H]-noradrenaline is added to a final volume of 0.2 ml and the mixture is incubated for 15 min at 37° C. After 15 min incubation, samples are filtered directly on Unifilter GF/C glass fiber filters (soaked for 30 min in 0.1% polyethylenimine) under vacuum and immediately washed with 1×0.2 mL assay buffer. Non-specific uptake is determined using talsupram (10 μM final concentration). Duloxetine is included as reference in all experiments as dose-response curve.

The conditions of assay [3]: 24 weeks' treatment, patients, cited from earlier work.

Sequence of NAT Noradrenergic Transporter (Q9WTR4 6-550 limits assumed): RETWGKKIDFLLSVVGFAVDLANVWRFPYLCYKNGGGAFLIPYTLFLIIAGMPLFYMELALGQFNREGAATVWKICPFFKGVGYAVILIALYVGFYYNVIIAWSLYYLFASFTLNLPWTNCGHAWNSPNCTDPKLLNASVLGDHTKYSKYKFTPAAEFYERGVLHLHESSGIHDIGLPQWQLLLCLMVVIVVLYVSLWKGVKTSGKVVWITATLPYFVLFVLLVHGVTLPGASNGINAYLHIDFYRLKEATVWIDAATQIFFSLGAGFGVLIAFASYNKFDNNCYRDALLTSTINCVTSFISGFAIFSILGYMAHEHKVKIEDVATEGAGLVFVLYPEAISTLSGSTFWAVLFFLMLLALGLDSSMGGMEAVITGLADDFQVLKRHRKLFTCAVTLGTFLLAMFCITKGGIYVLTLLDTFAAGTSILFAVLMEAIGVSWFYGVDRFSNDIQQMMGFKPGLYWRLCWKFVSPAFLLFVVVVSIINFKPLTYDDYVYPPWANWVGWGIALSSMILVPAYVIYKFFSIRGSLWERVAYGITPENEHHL
T2 sequence (P31652 whole entry): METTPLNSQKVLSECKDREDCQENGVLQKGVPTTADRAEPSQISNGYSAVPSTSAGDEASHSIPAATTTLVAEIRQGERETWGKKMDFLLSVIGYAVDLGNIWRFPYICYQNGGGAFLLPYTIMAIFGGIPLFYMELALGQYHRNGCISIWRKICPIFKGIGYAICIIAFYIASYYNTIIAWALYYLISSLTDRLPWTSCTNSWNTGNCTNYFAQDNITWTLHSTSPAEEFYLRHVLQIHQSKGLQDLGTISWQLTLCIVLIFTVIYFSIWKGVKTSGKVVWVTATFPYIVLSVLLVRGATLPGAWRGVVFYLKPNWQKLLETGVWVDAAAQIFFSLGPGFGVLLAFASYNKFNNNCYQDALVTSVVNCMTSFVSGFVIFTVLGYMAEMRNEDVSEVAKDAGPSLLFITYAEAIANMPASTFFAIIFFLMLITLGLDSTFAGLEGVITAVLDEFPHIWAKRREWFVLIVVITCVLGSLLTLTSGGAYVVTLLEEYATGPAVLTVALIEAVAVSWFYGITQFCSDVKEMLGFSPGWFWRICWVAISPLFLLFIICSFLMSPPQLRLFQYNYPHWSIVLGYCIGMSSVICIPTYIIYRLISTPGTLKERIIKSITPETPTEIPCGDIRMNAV
T1 sequence (P23977 whole entry): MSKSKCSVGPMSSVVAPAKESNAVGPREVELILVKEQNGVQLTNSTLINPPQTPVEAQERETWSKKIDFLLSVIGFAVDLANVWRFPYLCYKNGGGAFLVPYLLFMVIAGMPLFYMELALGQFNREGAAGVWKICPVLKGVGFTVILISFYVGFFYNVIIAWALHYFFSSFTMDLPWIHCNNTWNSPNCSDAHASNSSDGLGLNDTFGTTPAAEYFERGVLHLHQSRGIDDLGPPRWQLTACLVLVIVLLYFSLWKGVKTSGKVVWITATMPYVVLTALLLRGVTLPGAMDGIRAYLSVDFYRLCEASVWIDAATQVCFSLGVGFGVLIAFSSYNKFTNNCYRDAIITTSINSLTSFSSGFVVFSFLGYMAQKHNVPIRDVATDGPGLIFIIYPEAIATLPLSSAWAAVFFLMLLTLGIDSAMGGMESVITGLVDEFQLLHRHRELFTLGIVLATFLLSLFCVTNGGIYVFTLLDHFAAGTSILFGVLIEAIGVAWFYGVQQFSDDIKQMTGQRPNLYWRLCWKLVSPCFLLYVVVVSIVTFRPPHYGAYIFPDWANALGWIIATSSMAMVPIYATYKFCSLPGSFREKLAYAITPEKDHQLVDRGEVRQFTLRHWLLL

`CN[C@@H]1C[C@@H](c2c[nH]c3ccccc23)c2ccccc21` [Formula IX]: the IC50 (at DAT Dopamine Transporter; in assay [1]; in assay [2]) was 0.1 to 200 nM throughout.
In the case of `CN[C@@H]1C[C@@H](c2c[nH]c3ccc(Cl)cc23)c2ccccc21` [Formula VIII], the IC50 (on DAT Dopamine Transporter; in assay [1]; in assay [2]) was 0.1 to 200 nM throughout.
Take `CN[C@H]1C[C@@H](c2c[nH]c3c(F)cccc23)c2ccccc21` [Formula VII]: the IC50 (against DAT Dopamine Transporter; in assay [1]; in assay [2]) was 0.1 to 200 nM each time.
With `CN[C@@H]1C[C@H](c2c[nH]c3c(F)cccc23)c2ccccc21` [Formula VI], the IC50 (against DAT Dopamine Transporter; in assay [1]; in assay [2]) was 0.1 to 200 nM throughout.
For `CN[C@@H]1C[C@@H](c2c[nH]c3cc(OC)ccc23)c2ccccc21` [Formula X], the IC50 (at DAT Dopamine Transporter; in assay [1]; in assay [2]) was 0.1 to 200 nM throughout.
For the compound `CCOC[C@@H]1[C@@H](c2ccc(Cl)c(Cl)c2)C[C@@H]2CC[C@H]1N2C` [Tesofensine], the average weight loss in assay [3] (0.25 mg) is 6.5%; in assay [3] (0.5 mg) it was 11.2%; in assay [3] (1 mg) it was 12.6%.

By IC50 is commonly meant the point on the concentration scale where inhibition reaches its midpoint. Higher therefore signals a need for much substance.
